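Five compound concentrations were applied to cells in 96-well plates for 48 hours; endpoints were derived by simple linear interpolation of the resulting dose-response curve. GI50: concentration for 50% inhibition of growth.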 Calls of active or inactive are those of the source. Rule as the data show it: active = GI50 up to about 1.1 µM and inactive = higher.
Tests used:
Test in all cases: inhibition of tumour cell growth, NCI panel, 48 h
[1] = system: 786-0
[2] = system: A549
[3] = system: ACHN
[4] = system: BT-549
[5] = system: CAKI-1
[6] = system: CCRF-CEM
[7] = system: COLO 205
[8] = system: DU-145
[9] = system: EKVX
[10] = system: HCC 2998
[11] = system: HCT-116
[12] = system: HCT-15
[13] = system: HL-60
[14] = system: HOP-62
[15] = system: HOP-92
[16] = system: HT-29
[17] = system: Hs-578T
[18] = system: IGROV-1
[19] = system: K562
[20] = system: KM12
[21] = system: M14
[22] = system: MCF7
[23] = system: MDA-MB-231
[24] = system: MDA-MB-435
[25] = system: MDA-N
[26] = system: MOLT-4
[27] = system: Malme-3M
[28] = system: NCI-H226
[29] = system: NCI-H23
[30] = system: NCI-H460
[31] = system: NCI-H522
[32] = system: NCI/ADR-RES
[33] = system: OVCAR-3
[34] = system: OVCAR-4
[35] = system: OVCAR-5
[36] = system: OVCAR-8
[37] = system: PC-3
[38] = system: RPMI-8226
[39] = system: RXF 393
[40] = system: SF-268
[41] = system: SF-295
[42] = system: SF-539
[43] = system: SK-MEL-28
[44] = system: SK-MEL-2
[45] = system: SK-MEL-5
[46] = system: SK-OV-3
[47] = system: SN12C
[48] = system: SNB-19
[49] = system: SNB-75
[50] = system: SR
[51] = system: T47D
[52] = system: TK-10
[53] = system: U-251
[54] = system: UACC-62
[55] = system: UO-31

COC(=O)c1c(OC(C)=O)ccc2c1c1c(OC(C)=O)c3ccccc3c(OC(C)=O)c1n2C was tested, and the GI50 [1] was 26.4 µM (inactive), the GI50 [2] was 29.9 µM (inactive) and the GI50 [3] was 15.4 µM (inactive). The GI50 [4] was 21.8 µM (inactive), the GI50 [5] was 17.8 µM (inactive) and the GI50 [6] was 23.2 µM (inactive). The GI50 [7] was 29.2 µM (inactive), the GI50 [8] was 19.9 µM (inactive) and the GI50 [9] was 10.1 µM (inactive). For the same compound, the GI50 [10] was 23.7 µM (inactive), the GI50 [11] was 19.1 µM (inactive) and the GI50 [12] was 27.9 µM. The GI50 [13] was 22.1 µM (inactive), the GI50 [14] was 24.4 µM (inactive) and the GI50 [15] was 4.39 µM (inactive). For the same compound, the GI50 [16] was 38.4 µM (inactive), the GI50 [17] was 18.3 µM (inactive) and the GI50 [18] was 7.87 µM (inactive). For the same compound, the GI50 [19] was 19.2 µM (inactive), the GI50 [20] was 20.5 µM (inactive) and the GI50 [21] was 27.6 µM (inactive). For the same compound, the GI50 [22] was 28.7 µM (inactive), the GI50 [23] was 31.5 µM (inactive) and the GI50 [24] was 37.8 µM (inactive). The GI50 [25] was 32.2 µM (inactive), the GI50 [26] was 15.4 µM (inactive) and the GI50 [27] was 37.7 µM (inactive). The GI50 [28] was 47.1 µM (inactive), the GI50 [29] was 40.8 µM (inactive) and the GI50 [30] was 26.4 µM (inactive). The GI50 [31] was 12.9 µM (inactive), the GI50 [32] was 30.1 µM (inactive) and the GI50 [33] was 14.7 µM (inactive). The GI50 [34] was 19.4 µM (inactive), the GI50 [35] was 38.1 µM (inactive) and the GI50 [36] was 22.6 µM (inactive). For the same compound, the GI50 [37] was 30.4 µM (inactive), the GI50 [38] was 16.2 µM (inactive) and the GI50 [39] was 29.5 µM (inactive). The GI50 [40] was 22.6 µM (inactive), the GI50 [41] was 21.2 µM (inactive) and the GI50 [42] was 20.7 µM (inactive). For the same compound, the GI50 [43] was 53.7 µM (inactive), the GI50 [44] was 17.3 µM (inactive) and the GI50 [45] was 6.04 µM (inactive). The GI50 [46] was 16.1 µM (inactive), the GI50 [47] was 53.7 µM (inactive) and the GI50 [48] was 39.4 µM (inactive). The GI50 [49] was 2.06 µM (inactive), the GI50 [50] was 14.5 µM (inactive) and the GI50 [51] was 12.3 µM (inactive). The GI50 [52] was 26.8 µM (inactive), the GI50 [53] was 24.8 µM (inactive) and the GI50 [54] was 17.9 µM (inactive). The GI50 [55] was 25.1 µM (inactive).
